Source: patent EP3046573B1, “AMYLIN ANALOGUES” (Zealand Pharma A/S, priority 2013, dated 2015)
pEC50: −log10 of the molar value. Like-named read-outs stand apart in the source and are kept apart here. Numbered stars: 1 amine (or outer) side, 2 acyl side, 3 side chain; on linkers, the order of the positions; unused ones are H or OH. Bridge positions count the residues as written; N and C are the ends. Square brackets hold non-standard residues; d marks the D form. Peptide text beside a SMILES is read from it. * marks the point of attachment. C20 diacid = O=C(O)CCCCCCCCCCCCCCCCCCC(=O)*; γGlu = O=C(O)[C@H](CCC(=O)[*:2])N[*:1]; NMeI = CC[C@H](C)[C@H](NC)C(=O)O; Sar = CNCC(=O)O

Columns and labels:
[1] = target: T1, human calcitonin receptor (hCTR2) (Homo sapiens, UniProt P30988); assay: hCTR2 assay: induction of cAMP (AlphaScreen cAMP Assay kit) in COS7 cells expressing hCTR2; assay type: cell-based
T1 construct: expressed in transfected cells
T1 sequence (P30988 25-474): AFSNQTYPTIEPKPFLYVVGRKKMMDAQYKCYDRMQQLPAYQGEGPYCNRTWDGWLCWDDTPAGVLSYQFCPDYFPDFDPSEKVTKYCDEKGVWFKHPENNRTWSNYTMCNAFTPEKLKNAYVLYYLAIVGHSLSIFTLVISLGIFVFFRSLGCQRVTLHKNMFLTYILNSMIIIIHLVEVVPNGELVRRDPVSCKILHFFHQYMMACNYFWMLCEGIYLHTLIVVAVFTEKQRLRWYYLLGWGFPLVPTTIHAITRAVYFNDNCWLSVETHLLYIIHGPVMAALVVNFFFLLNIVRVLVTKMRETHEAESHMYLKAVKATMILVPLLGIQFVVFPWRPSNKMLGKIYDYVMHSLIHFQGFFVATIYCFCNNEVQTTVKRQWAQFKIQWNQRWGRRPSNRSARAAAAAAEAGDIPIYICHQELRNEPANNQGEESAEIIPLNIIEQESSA
How it was run: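 Stable hCTR2 clone in RAMP-naive COS7 cells; peptides titrated in Tyrode buffer (pH 7.4) with 100 µM IBMX, 0.1% casein, 15 min at 37° C. cAMP read by AlphaScreen after lysis; EC50 and efficacy relative to pramlintide from 4PL fit.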

[2] = Solubility assessment (turbidity absorbance at 325 nm); assay type: physicochemical; conditions: stock 2 mg/ml diluted 1:1, ambient temperature (typically 25°C), n=1; for Solubility, Acetate buffer pH 4: 100 mM acetate buffer pH 4.0; for Solubility, Acetate buffer pH 5: 100 mM acetate buffer pH 5.0; for Solubility, Histidine buffer pH 6: 100 mM histidine buffer pH 6.0; for Solubility, Histidine buffer pH 7: 100 mM histidine buffer pH 7.0; for Solubility, Phosphate buffer pH 6: 100 mM phosphate buffer pH 6.0; for Solubility, Phosphate buffer pH 7: 100 mM phosphate buffer pH 7.0; for Solubility, Phosphate buffer pH 7.5: 100 mM phosphate buffer pH7.5
How it was run: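 Stock 2 mg/ml peptide, H2O/HCl pH 2.5; 1:1 into 100 mM buffers: acetate pH 4.0/5.0, His pH 6.0/7.0, phosphate pH 6.0/7.0/7.5. A280 + A325, ~25°C, n=1. Soluble ≥ 1 mg/ml if A325 ≤ 0.02.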

Row | SMILES | pEC50 [1] | Solubility, Acetate buffer pH 4 [2] | Solubility, Acetate buffer pH 5 [2] | Solubility, Histidine buffer pH 6 [2] | Solubility, Histidine buffer pH 7 [2] | Solubility, Phosphate buffer pH 6 [2] | Solubility, Phosphate buffer pH 7 [2] | Solubility, Phosphate buffer pH 7.5 [2] | pEC50 ([1]; cAMP induction in COS7 cells expressing hCTR2, average of a minimum of 3 determinations, read-out: hCTR2 EC50)
1 | CC[C@@H](C)[C@@H](NC(=O)[C@H](C)NC(=O)CN(C)C(=O)[C@H](Cc1ccccc1)NC(=O)[C@H](CC(N)=O)NC(=O)[C@H](CC(N)=O)NC(=O)[C@H](CO)NC(=O)[C@H](CO)NC(=O)[C@H](Cc1c[nH]cn1)NC(=O)[C@H](Cc1c[nH]cn1)NC(=O)[C@H](CC(C)C)NC(=O)[C@H](Cc1ccccc1)NC(=O)[C@H](CCC(=O)O)NC(=O)[C@H](C)NC(=O)[C@H](CC(C)C)NC(=O)[C@H](CCCNC(=N)N)NC(=O)[C@H](CCC(N)=O)NC(=O)[C@@H](NC(=O)[C@H](C)NC(=O)[C@@H]1CSSC[C@H](NC(=O)[C@H](CCCNC(=N)N)NC(=O)CC[C@H](NC(=O)CCCCCCCCCCCCCCCCCCC(=O)O)C(=O)O)C(=O)N[C@@H](CC(N)=O)C(=O)N[C@@H]([C@@H](C)O)C(=O)N[C@@H](C)C(=O)N[C@@H]([C@@H](C)O)C(=O)N1)[C@@H](C)O)C(=O)N[C@@H](CC(C)C)C(=O)N[C@@H](CO)C(=O)N[C@@H](CO)C(=O)N[C@H](C(=O)N[C@@H](CC(N)=O)C(=O)N[C@H](C(=O)NCC(=O)N[C@@H](CO)C(=O)N[C@@H](CC(N)=O)C(=O)N[C@H](C(=O)N1CCC[C@H]1C(N)=O)[C@@H](C)O)C(C)C)[C@@H](C)O [Compound 28, [19CD]-isoGlu-RC()NTATC()ATQRLAEFLHHSSNNF-Gly(Me)-A-DIle-LSSTNVGSNTP-NH2] ({C20 diacid-γGlu}-RCNTATCATQRLAEFLHHSSNNF[Sar]A[dI]LSSTNVGSNTP-NH2; disulfide 2-7) | 9.80 | SS (SS indicates solubility ≥ 1mg/ml) | SS (SS indicates solubility ≥ 1mg/ml) | SS (SS indicates solubility ≥ 1mg/ml) | SS (SS indicates solubility ≥ 1mg/ml) | SS (SS indicates solubility ≥ 1mg/ml) | SS (SS indicates solubility ≥ 1mg/ml) | SS (SS indicates solubility ≥ 1mg/ml) | 
2 | CC[C@H](C)[C@@H](C(=O)N[C@@H](CC(C)C)C(=O)N[C@@H](CO)C(=O)N[C@@H](CO)C(=O)N[C@H](C(=O)N[C@@H](CC(N)=O)C(=O)N[C@H](C(=O)NCC(=O)N[C@@H](CO)C(=O)N[C@@H](CC(N)=O)C(=O)N[C@H](C(=O)N1CCC[C@H]1C(N)=O)[C@@H](C)O)C(C)C)[C@@H](C)O)N(C)C(=O)CN(C)C(=O)[C@H](Cc1ccccc1)NC(=O)[C@@H](CC(N)=O)NC(=O)[C@H](CC(N)=O)NC(=O)[C@H](CO)NC(=O)[C@H](CO)NC(=O)[C@H](Cc1c[nH]cn1)NC(=O)[C@H](Cc1c[nH]cn1)NC(=O)[C@H](CC(C)C)NC(=O)[C@H](Cc1ccccc1)NC(=O)[C@H](CCC(=O)O)NC(=O)[C@H](C)NC(=O)[C@H](CC(C)C)NC(=O)[C@H](CCCNC(=N)N)NC(=O)[C@H](CCC(N)=O)NC(=O)[C@@H](NC(=O)[C@H](C)NC(=O)[C@@H]1CSSC[C@H](NC(=O)[C@H](CCCNC(=N)N)NC(=O)CC[C@H](NC(=O)CCCCCCCCCCCCCCCCCCC(=O)O)C(=O)O)C(=O)N[C@@H](CC(N)=O)C(=O)N[C@@H]([C@@H](C)O)C(=O)N[C@@H](C)C(=O)N[C@@H]([C@@H](C)O)C(=O)N1)[C@@H](C)O [Compound 36, [19CD]-isoGlu-RC()NTATC()ATQRLAEFLHHSSN-DAsn-F-Gly(Me)-Ile(Me)-LSSTNVGSNTP-NH2] ({C20 diacid-γGlu}-RCNTATCATQRLAEFLHHSSN[dN]F[Sar][NMeI]LSSTNVGSNTP-NH2; disulfide 2-7) |  | SS (SS indicates solubility ≥ 1mg/ml) | SS (SS indicates solubility ≥ 1mg/ml) | SS (SS indicates solubility ≥ 1mg/ml) | SS (SS indicates solubility ≥ 1mg/ml) | SS (SS indicates solubility ≥ 1mg/ml) | SS (SS indicates solubility ≥ 1mg/ml) | SS (SS indicates solubility ≥ 1mg/ml) | 9.77
3 | CC[C@H](C)[C@@H](C(=O)N[C@@H](CC(C)C)C(=O)N[C@H](CO)C(=O)N[C@@H](CO)C(=O)N[C@H](C(=O)N[C@@H](CC(N)=O)C(=O)N[C@H](C(=O)NCC(=O)N[C@@H](CO)C(=O)N[C@@H](CC(N)=O)C(=O)N[C@H](C(=O)N1CCC[C@H]1C(N)=O)[C@@H](C)O)C(C)C)[C@@H](C)O)N(C)C(=O)[C@H](C)NC(=O)CN(C)C(=O)[C@H](Cc1ccccc1)NC(=O)[C@H](CC(N)=O)NC(=O)[C@H](CC(N)=O)NC(=O)[C@H](CO)NC(=O)[C@H](CO)NC(=O)[C@H](CCCNC(=N)N)NC(=O)[C@H](Cc1c[nH]cn1)NC(=O)[C@H](CC(C)C)NC(=O)[C@H](Cc1ccccc1)NC(=O)[C@H](CCC(=O)O)NC(=O)[C@H](C)NC(=O)[C@H](CC(C)C)NC(=O)[C@H](CCCNC(=N)N)NC(=O)[C@H](CCC(N)=O)NC(=O)[C@@H](NC(=O)[C@H](C)NC(=O)[C@@H]1CSSC[C@H](NC(=O)[C@H](CCCCN)NC(=O)CC[C@H](NC(=O)CCCCCCCCCCCCCCCCCCC(=O)O)C(=O)O)C(=O)N[C@@H](CC(N)=O)C(=O)N[C@@H]([C@@H](C)O)C(=O)N[C@@H](C)C(=O)N[C@@H]([C@@H](C)O)C(=O)N1)[C@@H](C)O [Compound 68, [19CD]-isoGlu-KC()NTATC()ATQRLAEFLHRSSNNF-Gly(Me)-A-Ile(Me)-L-DSer-STNVGSNTP-NH2] ({C20 diacid-γGlu}-KCNTATCATQRLAEFLHRSSNNF[Sar]A[NMeI]L[dS]STNVGSNTP-NH2; disulfide 2-7) | 10.02 | SS (SS indicates solubility ≥ 1mg/ml) | SS (SS indicates solubility ≥ 1mg/ml) | SS (SS indicates solubility ≥ 1mg/ml) | SS (SS indicates solubility ≥ 1mg/ml) | SS (SS indicates solubility ≥ 1mg/ml) | SS (SS indicates solubility ≥ 1mg/ml) | SS (SS indicates solubility ≥ 1mg/ml) | 
4 | CC[C@H](C)[C@@H](C(=O)N[C@@H](CC(C)C)C(=O)N[C@@H](CO)C(=O)N[C@@H](CO)C(=O)N[C@@H](CC(N)=O)C(=O)N[C@H](C(=O)NCC(=O)N[C@@H](CO)C(=O)N[C@@H](CC(N)=O)C(=O)N[C@H](C(=O)N1CCC[C@H]1C(N)=O)[C@@H](C)O)C(C)C)N(C)C(=O)[C@H](C)NC(=O)CN(C)C(=O)[C@H](Cc1ccccc1)NC(=O)[C@H](CC(N)=O)NC(=O)[C@H](CC(N)=O)NC(=O)[C@H](CO)NC(=O)[C@H](CO)NC(=O)[C@H](Cc1c[nH]cn1)NC(=O)[C@H](Cc1c[nH]cn1)NC(=O)[C@H](CC(C)C)NC(=O)[C@H](Cc1ccccc1)NC(=O)[C@H](CCC(=O)O)NC(=O)[C@H](C)NC(=O)[C@H](CC(C)C)NC(=O)[C@H](CCCNC(=N)N)NC(=O)[C@H](CCC(N)=O)NC(=O)[C@@H](NC(=O)[C@H](C)NC(=O)[C@@H]1CSSC[C@H](NC(=O)[C@H](CCCNC(=N)N)NC(=O)CC[C@H](NC(=O)CCCCCCCCCCCCCCCCCCC(=O)O)C(=O)O)C(=O)N[C@@H](CC(N)=O)C(=O)N[C@@H]([C@@H](C)O)C(=O)N[C@@H](C)C(=O)N[C@@H]([C@@H](C)O)C(=O)N1)[C@@H](C)O [Compound 37, [19CD]-isoGlu-RC()NTATC()ATQRLAEFLHHSSNNF-Gly(Me)-A-Ile(Me)-LSSNVGSNTP-NH2] ({C20 diacid-γGlu}-RCNTATCATQRLAEFLHHSSNNF[Sar]A[NMeI]LSSNVGSNTP-NH2; disulfide 2-7) | 9.41 | SS (SS indicates solubility ≥ 1mg/ml) | SS (SS indicates solubility ≥ 1mg/ml) | SS (SS indicates solubility ≥ 1mg/ml) | SS (SS indicates solubility ≥ 1mg/ml) | SS (SS indicates solubility ≥ 1mg/ml) | SS (SS indicates solubility ≥ 1mg/ml) | SS (SS indicates solubility ≥ 1mg/ml) | 
